The source of these data is US20260184693A1, “INHIBITORS OF SOLUTE CARRIER FAMILY 6A MEMBER 19 (SLC6A19) AND METHODS OF USE THEREOF” (Maze Therapeutics, Inc., priority 2022, published 2026).

The target in the test is T1, human SLC6A19 (Homo sapiens, UniProt Q695T7).
T1 construct: expressed in transfected cells
T1 sequence (Q695T7 1-634): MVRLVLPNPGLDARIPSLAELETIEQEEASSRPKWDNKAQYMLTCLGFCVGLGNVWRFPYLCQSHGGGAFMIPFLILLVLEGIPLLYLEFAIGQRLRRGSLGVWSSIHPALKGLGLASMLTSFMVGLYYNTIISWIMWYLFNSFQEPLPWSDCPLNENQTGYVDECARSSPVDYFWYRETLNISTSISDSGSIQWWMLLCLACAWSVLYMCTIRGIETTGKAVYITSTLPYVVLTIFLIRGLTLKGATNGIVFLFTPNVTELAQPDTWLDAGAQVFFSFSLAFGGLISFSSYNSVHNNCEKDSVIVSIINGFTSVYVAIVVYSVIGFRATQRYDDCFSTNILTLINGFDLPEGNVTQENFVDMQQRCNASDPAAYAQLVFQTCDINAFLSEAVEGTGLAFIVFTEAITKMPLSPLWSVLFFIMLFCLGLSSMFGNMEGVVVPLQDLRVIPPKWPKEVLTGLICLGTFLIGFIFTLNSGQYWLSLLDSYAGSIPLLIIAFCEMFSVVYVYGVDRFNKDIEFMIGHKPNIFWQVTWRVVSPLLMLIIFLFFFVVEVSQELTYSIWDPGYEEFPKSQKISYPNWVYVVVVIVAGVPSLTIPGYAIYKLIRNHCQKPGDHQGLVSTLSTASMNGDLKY
T1 sequence (Q9HBJ8 15-222 partner): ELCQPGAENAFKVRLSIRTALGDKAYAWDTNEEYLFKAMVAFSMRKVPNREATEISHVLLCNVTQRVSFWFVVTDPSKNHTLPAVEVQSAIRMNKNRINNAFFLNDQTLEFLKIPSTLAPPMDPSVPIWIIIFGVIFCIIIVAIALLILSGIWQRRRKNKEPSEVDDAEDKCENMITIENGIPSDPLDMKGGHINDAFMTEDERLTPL
Put plainly: Example B-1: L-[3H]leucine uptake, liquid scintillation, in CHO cells with doxycycline-inducible expression of human SLC6A19 and TMEM27. The class given is cell-based. The following applies: read-out: SLC6A19_Radioligand Uptake Assay IC50. As to the method: CHO cells with doxycycline-inducible expression of human SLC6A19 and TMEM27 were maintained in T150 cell culture treated flasks using cell culture media, which consisted of 1×DMEM/F12 (Gibco, 11330057), 10% Tet System-Approved FBS (Gibco, A4736401), 100 U/mL Penicillin-Streptomycin (Gibco, 15140122), 1×GlutaMAX™ Supplement (Gibco, 35050061), 1 mM Sodium Pyruvate (Gibco, 11360070), 1.1 mg/mL Sodium Bicarbonate (Gibco, 25080094), 5 μg/mL Blasticidin (InvivoGen, ant-bl-1), 150 μg/mL Hygromycin B Gold (InvivoGen, ant-hg-5), and 500 μg/mL G418 (Sigma-Aldrich, G8168-100 mL). In preparation for the assay, this media was aspirated and 5 mL of TryμLE™ Express Enzyme (Gibco, 12605010) was added to each flask to initiate cell dissociation. The flasks were then incubated (humidified, 37° C. with 5% CO2) for 2 minutes. After incubation, 10 mL of pre-warmed cell culture media was added to each flask. The cell suspension was collected and centrifuged for 5 minutes at 200xg.
The supernatant was aspirated and the pellet was resuspended in 5 mL pre-warmed cell culture media. The resuspended cells were counted using the Countess Cell Counting Chamber (Invitrogen) and the cell concentration of the suspension was readjusted to 1 million live cells/mL using pre-warmed cell culture media. 25 uL/well (25,000 cells/well) of readjusted cell suspension was dispensed into Poly-D-Lysine 384-well white/clear plates (Corning, 354660) using a MultiDrop Combi (Thermo Electron Corp). To induce expression of Human SLC6A19 and TMEM27, 25 uL/well of cell culture media containing 2 μg/mL doxycycline was added to the first 23 columns of each plate resulting in a final concentration of […] doxycycline. 25 μL/well of cell culture media was added to the last column of each plate, to act as negative control wells for Human SLC6A19 and TMEM27 expression. Assay plates were then incubated (humidified, 37° C. with 5% CO2) for 18 hours. After incubation, the media was aspirated and the wells were washed 4 times with pre-warmed HBSS (Sigma-Aldrich, H8264-1L) using an Apricot S-Pipette S2 (Apricot Designs), such that 5 uL/well HBSS was remaining at the end of each wash. […] At this step, the final in-well DMSO concentration in the assay plate is 0.5%. All compounds were plated in a duplicate 8-point dilution series that consisted of 3-fold dilutions. […] Afterwards, 15 uL/well of 3.2 mM hot:cold leucine solution (1:15000 ratio of L-[3,4,5-3H(N)] Leucine (Perkin Elmer, NET460001MC) to L-Leucine (Sigma-Aldrich, L8912-25G) diluted with HBSS (Sigma-Aldrich, H8264-1L)) was added using the Viaflo 384 (Integra), for a final concentration of 1.6 mM hot:cold leucine solution. The plates were then incubated (humidified, 37° C. with 5% CO2) for 20 minutes to conduct the uptake reaction. Immediately after the incubation, the plates were washed 4 times with HBSS (Sigma-Aldrich, H8264-1L) using the ELx405 Microplate Washer (Biotek) to terminate the uptake reaction. After the washes, 50 uL/well Ultima Gold Scintillation Cocktail (Perkin Elmer, 6013326) was added to each well using the Viaflo 384 (Integra). The plates were then incubated (humidified, 37° C. with 5% CO2) on a plate shaker at 200 rpm for 2 hours. After incubation, the plates were removed from the shaker and kept at room temperature for 15 minutes.
Liquid scintillation analysis was performed using the MicroBeta2 Microplate Counter (Perkin Elmer). Activity (%) was derived by normalizing the average of positive control compound treated wells to 0% and the average of DMSO (negative control) wells to 100%. Collaborative Drug Discovery software was used for graphing data.
In general, IC50 refers to the point on the concentration scale where inhibition reaches its midpoint. `CN(C(=O)NCc1cc2cc(Cl)ccc2[nH]1)[C@@H]1CCCN(C(=O)Cc2cnoc2)C1` [Compound 246, (R)-3-((5-chloro-1H-indol-2-yl)methyl)-1-(1-(2-(isoxazol-4-yl)acetyl)piperidin-3-yl)-1-methylurea]: the IC50 was 1160 nM.

Take `CC(=O)N1CCC[C@@H](N(C)C(=O)NCCc2ccc(Cl)c(-c3cc4ccccc4[nH]3)c2)C1` [Compound 206, (R)-1-(1-acetylpiperidin-3-yl)-3-(4-chloro-3-(1H-indol-2-yl)phenethyl)-1-methylurea]: the IC50 came out at 441 nM.

With `CN(C(=O)NCc1cc2cc(Cl)ccc2[nH]1)[C@@H]1CCCN(C(=O)c2cc(F)n(C)n2)C1` [Compound 115, (R)-3-((5-chloro-1H-indol-2-yl)methyl)-1-(1-(5-fluoro-1-methyl-1H-pyrazole-3-carbonyl)piperidin-3-yl)-1-methylurea], the IC50 was 688 nM.

For `CCNC(=O)N1CCC[C@@H](N(C)C(=O)NCc2cc3cc(Cl)ccc3[nH]2)C1` [Compound 209, (R)-3-(3-((5-chloro-1H-indol-2-yl)methyl)-1-methylureido)-N-ethylpiperidine-1-carboxamide], the IC50 stood at 126 nM.

On to `CN(C(=O)NCc1cc2cc(Cl)ccc2[nH]1)[C@@H]1CCCN(C(=O)Cn2cc(CCN)nn2)C1` [Compound 134, (R)-1-(1-(2-(4-(2-aminoethyl)-1H-1,2,3-triazol-1-yl)acetyl)piperidin-3-yl)-3-((5-chloro-1H-indol-2-yl)methyl)-1-methylurea], for which the 50% inhibitory concentration (IC50) is 3770 nM.

For the compound `CC(C)NC(=O)N1CCC[C@@H](N(C)C(=O)NCc2cc3cc(Cl)ccc3[nH]2)C1` [Compound 213, (R)-3-(3-((5-chloro-1H-indol-2-yl)methyl)-1-methylureido)-N-isopropylpiperidine-1-carboxamide], the IC50 came out at 804 nM.

`CN(C(=O)NCc1cc2cc(Cl)ccc2[nH]1)[C@@H]1CCCN(C(=O)N2CC(F)(F)C2)C1` [Compound 216, (R)-3-((5-chloro-1H-indol-2-yl)methyl)-1-(1-(3,3-difluoroazetidine-1-carbonyl)piperidin-3-yl)-1-methylurea]: the IC50 was determined as 807 nM.

On to `CN(C(=O)NCc1cc2cc(Cl)ccc2[nH]1)[C@@H]1CCCN(C(=O)C2CCO2)C1` (stereo partly drawn) [Compound 116, 3-((5-chloro-1H-indol-2-yl)methyl)-1-methyl-1-((3R)-1-(oxetane-2-carbonyl)piperidin-3-yl)urea], for which the IC50 stood at 515 nM.

Turning to `CN(C(=O)NCc1cc2cc(Cl)ccc2[nH]1)[C@@H]1CCCN(C(=O)C2(C)CCC2)C1` [Compound 118, (R)-3-((5-chloro-1H-indol-2-yl)methyl)-1-methyl-1-(1-(1-methylcyclobutane-1-carbonyl)piperidin-3-yl)urea], the IC50 is 1620 nM.

With `CC(=O)N1C[C@H](N(C)C(=O)NCc2cc3cc(Cl)ccc3[nH]2)CC[C@@H]1C` (single isomer, unassigned) [Compound 192, 1-((3R,6S or 3S,6R)-1-acetyl-6-methylpiperidin-3-yl)-3-((5-chloro-1H-indol-2-yl)methyl)-1-methylurea], the IC50 stood at 558 nM.

In the case of `CC(=O)N1CCC[C@@H](N(C)C(=O)NCc2cc3ccc(C)cc3[nH]2)C1` [Compound 214, (R)-1-(1-acetylpiperidin-3-yl)-1-methyl-3-((6-methyl-1H-indol-2-yl)methyl)urea], the IC50 amounted to 1290 nM.

`CN(C(=O)NCc1cc2cc(Cl)ccc2[nH]1)[C@@H]1CCCN(C(=O)NC2CCC2)C1` [Compound 211, (R)-3-(3-((5-chloro-1H-indol-2-yl)methyl)-1-methylureido)-N-cyclobutylpiperidine-1-carboxamide]: the IC50 stood at 1360 nM.

Consider `CC1CC(C(=O)N2CCC[C@@H](N(C)C(=O)NCc3cc4cc(Cl)ccc4[nH]3)C2)C1` (stereo partly drawn) [Compound 117, (R)-3-((5-chloro-1H-indol-2-yl)methyl)-1-methyl-1-(1-(3-methylcyclobutane-1-carbonyl)piperidin-3-yl)urea], for which the IC50 turned out to be 608 nM.

As to `CC(=O)N1CCC[C@@H](N(C)C(=O)NCCc2cc(-c3cc4ccccc4[nH]3)c(Cl)cc2Cl)C1` [Compound 207, (R)-1-(1-acetylpiperidin-3-yl)-3-(2,4-dichloro-5-(1H-indol-2-yl)phenethyl)-1-methylurea], the half-maximal inhibitory concentration (IC50) is 715 nM.

For `CC(=O)N1CCC[C@@H](N(C)C(=O)NCc2cc3cc(C(F)(F)F)ccc3[nH]2)C1` [Compound 212, (R)-1-(1-acetylpiperidin-3-yl)-1-methyl-3-((5-(trifluoromethyl)-1H-indol-2-yl)methyl)urea], the IC50 came to 259 nM.

As for `CN(C)C(=O)N1CCC[C@@H](N(C)C(=O)NCc2cc3cc(Cl)ccc3[nH]2)C1` [Compound 208, (R)-3-(3-((5-chloro-1H-indol-2-yl)methyl)-1-methylureido)-N,N-dimethylpiperidine-1-carboxamide], the IC50 came to 418 nM.

`CN(C(=O)NCc1cc2cc(Cl)ccc2[nH]1)[C@@H]1CCCN(C(=O)c2ccc(F)cn2)C1` [Compound 114, (R)-3-((5-chloro-1H-indol-2-yl)methyl)-1-(1-(5-fluoropicolinoyl)piperidin-3-yl)-1-methylurea]: the IC50 worked out at 847 nM.

In the case of `CN(C(=O)NCc1cc2cc(Cl)ccc2[nH]1)[C@@H]1CCCN(C(=O)C2CCOC2)C1` (stereo partly drawn) [Compound 112, 3-((5-chloro-1H-indol-2-yl)methyl)-1-methyl-1-((3R)-1-(tetrahydrofuran-3-carbonyl)piperidin-3-yl)urea], the IC50 is 367 nM.

Regarding `CN(C(=O)NCc1cc2cc(Cl)ccc2[nH]1)[C@@H]1CCCN(C(=O)CCO)C1` [Compound 215, (R)-3-((5-chloro-1H-indol-2-yl)methyl)-1-(1-(3-hydroxypropanoyl)piperidin-3-yl)-1-methylurea], the half-maximal inhibitory concentration (IC50) was 637 nM.

For `CN(C(=O)NCc1cc2cc(Cl)ccc2[nH]1)[C@@H]1CCCN(C(=O)c2nn(C)cc2F)C1` [Compound 113, (R)-3-((5-chloro-1H-indol-2-yl)methyl)-1-(1-(4-fluoro-1-methyl-1H-pyrazole-3-carbonyl)piperidin-3-yl)-1-methylurea], the IC50 was 494 nM.

For `CN(C(=O)NCc1cc2cc(Cl)ccc2[nH]1)[C@@H]1CCCN(C(=O)NCC(F)(F)F)C1` [Compound 210, (R)-3-(3-((5-chloro-1H-indol-2-yl)methyl)-1-methylureido)-N-(2,2,2-trifluoroethyl)piperidine-1-carboxamide], the IC50 was found to be 892 nM.
